# Like-named read-outs stand apart in the source and are kept apart here.
# Experiments:
# [1] = target: B. taurus (heart) complex I (Bos taurus, UniProt P03887+P17694+P42026); assay: biochemical; type: biochemical; conditions: for IC50: B. taurus heart mitochondria, estimated from fitted dose-response curves, read-out: B. taurus Complex I IC50; for activity at 0.0001 µM / activity at 0.0005 µM / activity at 0.001 µM / activity at 0.0025 µM / activity at 0.005 µM / activity at 0.013 µM / activity at 0.025 µM / activity at 0.063 µM / activity at 0.125 µM / activity at 0.313 µM / activity at 0.625 µM / activity at 1.5 µM / activity at 3 µM / activity at 15 µM / activity at 37.5 µM / activity at 75 µM: read-out: B. taurus mitochondrial complex I activity; for Log IC50 B. taurus complex I: log10 of IC50 in µM, B. taurus mitochondria
# Chain of B. taurus (heart) complex I (P03887 whole entry): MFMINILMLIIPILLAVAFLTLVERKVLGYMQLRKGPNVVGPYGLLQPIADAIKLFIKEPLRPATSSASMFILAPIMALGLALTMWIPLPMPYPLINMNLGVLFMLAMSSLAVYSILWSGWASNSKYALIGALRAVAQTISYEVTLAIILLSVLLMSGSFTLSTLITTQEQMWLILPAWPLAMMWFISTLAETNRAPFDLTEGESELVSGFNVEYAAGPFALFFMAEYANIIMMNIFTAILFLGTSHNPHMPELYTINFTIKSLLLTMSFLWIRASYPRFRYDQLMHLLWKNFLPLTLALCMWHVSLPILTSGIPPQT
# Chain of B. taurus (heart) complex I (P17694 34-463): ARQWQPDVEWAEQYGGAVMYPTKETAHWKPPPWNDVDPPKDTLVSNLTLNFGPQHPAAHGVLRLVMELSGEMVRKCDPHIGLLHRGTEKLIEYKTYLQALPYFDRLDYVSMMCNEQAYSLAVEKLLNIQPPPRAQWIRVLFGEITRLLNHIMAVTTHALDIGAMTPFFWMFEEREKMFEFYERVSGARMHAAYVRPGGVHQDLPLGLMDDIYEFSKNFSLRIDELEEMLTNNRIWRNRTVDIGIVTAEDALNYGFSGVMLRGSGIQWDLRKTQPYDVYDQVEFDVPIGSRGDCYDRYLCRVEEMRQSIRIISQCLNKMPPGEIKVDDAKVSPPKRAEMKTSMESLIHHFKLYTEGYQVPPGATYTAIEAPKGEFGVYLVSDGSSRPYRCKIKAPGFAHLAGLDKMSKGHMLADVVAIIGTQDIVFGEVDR
# Chain of B. taurus (heart) complex I (P42026 38-216): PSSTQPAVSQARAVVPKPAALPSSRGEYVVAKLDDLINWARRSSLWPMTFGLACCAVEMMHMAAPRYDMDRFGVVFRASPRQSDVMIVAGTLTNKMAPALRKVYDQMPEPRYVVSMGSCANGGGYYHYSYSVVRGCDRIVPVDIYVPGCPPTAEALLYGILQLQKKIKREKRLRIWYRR
# In short: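 Complex I activity followed as DCIP reduction (600 nm, 30 s reads, 15 min) with 80 μM NADH and 60 μM decylubiquinone in 25 mM KPi pH 7.5 containing 2 μM antimycin A and 2 mM KCN. Freeze-thawed mouse or bovine heart mitochondria at 0.2 mg/mL; initial-rate percent of solvent control, single-point 100 μM or dose-response.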
# [2] = target: C. elegans (N2) complex I (NADH:ubiquinone oxidoreductase) (Caenorhabditis elegans, UniProt P24887+Q93873+Q94360); assay: biochemical; type: biochemical; conditions: for activity at 0.0001 µM / activity at 0.0005 µM / activity at 0.001 µM / activity at 0.0025 µM / activity at 0.005 µM / activity at 0.013 µM / activity at 0.025 µM / activity at 0.063 µM / activity at 0.125 µM / activity at 0.313 µM / activity at 0.625 µM / activity at 1.5 µM / activity at 3 µM / activity at 15 µM / activity at 37.5 µM / activity at 75 µM: read-out: C. elegans mitochondrial complex I activity; for Log IC50 C. elegans complex I: log10 of IC50 in µM, C. elegans mitochondria
# Chain of C. elegans (N2) complex I (NADH:ubiquinone oxidoreductase) (Q94360 17-199): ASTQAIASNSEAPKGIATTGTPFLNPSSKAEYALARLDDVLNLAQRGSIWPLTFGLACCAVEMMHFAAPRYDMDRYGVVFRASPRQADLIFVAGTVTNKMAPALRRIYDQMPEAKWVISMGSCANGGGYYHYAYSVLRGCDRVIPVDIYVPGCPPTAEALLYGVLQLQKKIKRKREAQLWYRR
# Chain of C. elegans (N2) complex I (NADH:ubiquinone oxidoreductase) (P24887 whole entry): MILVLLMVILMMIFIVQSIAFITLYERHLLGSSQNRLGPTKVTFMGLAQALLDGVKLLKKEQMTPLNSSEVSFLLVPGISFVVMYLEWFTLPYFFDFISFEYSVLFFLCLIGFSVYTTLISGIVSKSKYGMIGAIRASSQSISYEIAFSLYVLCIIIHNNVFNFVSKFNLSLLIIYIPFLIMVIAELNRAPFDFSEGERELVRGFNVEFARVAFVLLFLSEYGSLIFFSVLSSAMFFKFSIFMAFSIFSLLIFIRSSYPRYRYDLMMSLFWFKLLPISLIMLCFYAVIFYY
# Chain of C. elegans (N2) complex I (NADH:ubiquinone oxidoreductase) (Q93873 31-482): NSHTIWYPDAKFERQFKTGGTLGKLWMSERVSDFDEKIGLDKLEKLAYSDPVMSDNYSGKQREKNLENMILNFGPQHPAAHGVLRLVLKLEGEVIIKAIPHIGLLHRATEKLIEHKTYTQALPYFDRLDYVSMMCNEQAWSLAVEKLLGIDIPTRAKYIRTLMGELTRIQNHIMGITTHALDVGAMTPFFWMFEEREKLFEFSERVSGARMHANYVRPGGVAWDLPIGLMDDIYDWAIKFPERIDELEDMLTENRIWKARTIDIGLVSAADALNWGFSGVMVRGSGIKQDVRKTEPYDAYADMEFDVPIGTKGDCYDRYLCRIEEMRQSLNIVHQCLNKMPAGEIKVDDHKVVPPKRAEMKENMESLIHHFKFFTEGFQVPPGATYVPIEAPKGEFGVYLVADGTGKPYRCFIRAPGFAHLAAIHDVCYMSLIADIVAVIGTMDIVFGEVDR
# In short: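 Activity expressed as percent of solvent control. Complex I rate came from DCIP reduction at 600 nm (initial linear slope, 15 min) with NADH and decylubiquinone as substrates, plus antimycin A and KCN, in pH 7.5 KPi/BSA buffer. Isolated, thrice freeze-thawed mitochondria used at 0.2 mg/mL.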
# [3] = in vitro complex I dose response on C. elegans mitochondria, average of at least two biological replicates, fit in R (DRC), read-out: IC50 C. elegans complex I
# [4] = wild-type (N2) mitochondria, read-out: C. elegans Complex I IC50
# [5] = wild-type C. elegans mitochondria, estimated from fitted dose-response curves, read-out: C. elegans Complex I IC50
Structure (SMILES),IC50 [1] [nM],activity at 0.0001 µM [1] [%],activity at 0.0005 µM [1] [%],activity at 0.001 µM [1] [%],activity at 0.0025 µM [1] [%],activity at 0.005 µM [1] [%],activity at 0.013 µM [1] [%],activity at 0.025 µM [1] [%],activity at 0.063 µM [1] [%],activity at 0.125 µM [1] [%],activity at 0.313 µM [1] [%],activity at 0.625 µM [1] [%],activity at 1.5 µM [1] [%],activity at 3 µM [1] [%],activity at 15 µM [1] [%],Log IC50 B. taurus complex I [1] [µM],"IC50 [2, 3] [nM]",Log IC50 C. elegans complex I [2] [µM],"IC50 [2, 4] [nM]","IC50 [2, 5] [nM]",further results
FC(F)(F)c1cccc(OCCCCn2cnc3ccccc32)c1 [Compound 7925004],13000,92.5,92.1,90.6,88.9,89.8,84.7,87.1,85.1,81.8,83.3,88.4,81.4,76.3,35.9,1.11,2060,0.31,2060,2060,activity at 37.5 µM [1]: 9.66%; activity at 75 µM [1]: 1.95%; activity at 0.0001 µM [2]: 115%; activity at 0.0005 µM [2]: 105%; activity at 0.001 µM [2]: 110%; activity at 0.0025 µM [2]: 110%; activity at 0.005 µM [2]: 105%; activity at 0.013 µM [2]: 103%; activity at 0.025 µM [2]: 105%; activity at 0.063 µM [2]: 104%; activity at 0.125 µM [2]: 98%; activity at 0.313 µM [2]: 81.9%; activity at 0.625 µM [2]: 91.2%; activity at 1.5 µM [2]: 67.6%; activity at 3 µM [2]: 48.6%; activity at 15 µM [2]: 22.1%; activity at 37.5 µM [2]: 13.1%; activity at 75 µM [2]: 1.4%
Clc1ccc(SCCCCn2cnc3ccccc32)cc1 [Compound 7925515],8020,102,97.1,96.1,95.6,88.9,95.1,90.6,95.8,98.1,94.7,97.6,86.3,74.8,26.8,0.90,950,-0.0223,950,950,activity at 37.5 µM [1]: 5.44%; activity at 75 µM [1]: 2.46%; activity at 0.0001 µM [2]: 90.8%; activity at 0.0005 µM [2]: 89.5%; activity at 0.001 µM [2]: 93.5%; activity at 0.0025 µM [2]: 93.3%; activity at 0.005 µM [2]: 91%; activity at 0.013 µM [2]: 90.5%; activity at 0.025 µM [2]: 86.2%; activity at 0.063 µM [2]: 83.9%; activity at 0.125 µM [2]: 76.1%; activity at 0.313 µM [2]: 69.1%; activity at 0.625 µM [2]: 60.1%; activity at 1.5 µM [2]: 39.1%; activity at 3 µM [2]: 22%; activity at 15 µM [2]: 10.5%; activity at 37.5 µM [2]: 7.84%; activity at 75 µM [2]: 5.86%
Cc1ccc2nc(C(C)c3ccc(CC(C)C)cc3)[nH]c2c1 (centres unmarked) [STL482096],12300,–,–,–,–,–,–,–,–,–,–,–,–,–,–,1.09,910,-0.04,910,910,–
Clc1ccc(Cn2cnc3ccccc32)c(Cl)c1 [Compound 6750659],2600,93.1,93.8,91.7,100,91.7,94.7,92.7,89.8,83.5,77.1,78.3,60.6,42.8,8.04,0.41,450,-0.35,450,450,activity at 37.5 µM [1]: 1.6%; activity at 75 µM [1]: 1.94%; activity at 0.0001 µM [2]: 89.4%; activity at 0.0005 µM [2]: 104%; activity at 0.001 µM [2]: 101%; activity at 0.0025 µM [2]: 110%; activity at 0.005 µM [2]: 103%; activity at 0.013 µM [2]: 98.1%; activity at 0.025 µM [2]: 98.4%; activity at 0.063 µM [2]: 84.8%; activity at 0.125 µM [2]: 79.5%; activity at 0.313 µM [2]: 62.1%; activity at 0.625 µM [2]: 45.6%; activity at 1.5 µM [2]: 24.9%; activity at 3 µM [2]: 16.1%; activity at 15 µM [2]: 4.66%; activity at 37.5 µM [2]: 3.82%; activity at 75 µM [2]: 5.12%
Cc1nc2ccccc2n1Cc1ccc(C(C)C)cc1 [Compound 7353551],1570,–,–,–,–,–,–,–,–,–,–,–,–,–,–,0.20,430,-0.37,430,430,–
CCCOc1ccc(Cn2cnc3ccccc32)cc1 [Compound 7355741],3070,95.3,97.8,102,105,102,104,109,57.4,101,97.1,86,75.9,37,13.2,0.49,620,-0.21,620,620,activity at 37.5 µM [1]: 1.26%; activity at 75 µM [1]: 2.32%; activity at 0.0001 µM [2]: 85.2%; activity at 0.0005 µM [2]: 94.7%; activity at 0.001 µM [2]: 89.8%; activity at 0.0025 µM [2]: 99%; activity at 0.005 µM [2]: 86.1%; activity at 0.013 µM [2]: 94.6%; activity at 0.025 µM [2]: 90.6%; activity at 0.063 µM [2]: 82.3%; activity at 0.125 µM [2]: 77.2%; activity at 0.313 µM [2]: 62.4%; activity at 0.625 µM [2]: 47.9%; activity at 1.5 µM [2]: 31.8%; activity at 3 µM [2]: 15.1%; activity at 15 µM [2]: 3.6%; activity at 37.5 µM [2]: 5.38%; activity at 75 µM [2]: 7.89%

# Source: article PMC11079024, “Identification of a family of species-selective complex I inhibitors as potential anthelmintics” (Nature Communications, 2024)
